Measurements: article PMC5218480 (PLoS ONE, 2017)

Test system: MV-4-11 cells
Assay: Gene expression microarray analysis (Affymetrix PrimeView) and GSEA
Type: cell-based, human
Parameters: RFU PODN (11730768_x_at) / Fold change /veh PODN (11730768_x_at) / RFU LINC00158 (11744669_a_at) / Fold change /veh LINC00158 (11744669_a_at) / RFU DUSP10 (11751237_a_at) / Fold change /veh DUSP10 (11751237_a_at) / RFU ID3 (11757404_x_at) / Fold change /veh ID3 (11757404_x_at) / RFU PLEKHG5 (11737974_s_at) / Fold change /veh PLEKHG5 (11737974_s_at) / RFU LRRC4B (11730491_at) / Fold change /veh LRRC4B (11730491_at) / RFU GIMAP4 (11747438_a_at) / Fold change /veh GIMAP4 (11747438_a_at) / RFU KRT8 (11758183_x_at) / Fold change /veh KRT8 (11758183_x_at) / RFU CNN1 (11734310_a_at) / Fold change /veh CNN1 (11734310_a_at) / RFU VPS37D (11726825_at) / Fold change /veh VPS37D (11726825_at) / RFU C10orf10 (11716522_x_at) / Fold change /veh C10orf10 (11716522_x_at) / RFU KIR2DL2 /// KIR2DL4 /// KIR2DL5A /// KIR2DL5B /// KIR2DS1 /// KIR2DS2 /// KIR2DS3 /// KIR2DS4 /// KIR3DL3 /// KIR3DL3 /// KIR3DS1 (11738374_at) / Fold change /veh KIR2DL2 /// KIR2DL4 /// KIR2DL5A /// KIR2DL5B /// KIR2DS1 /// KIR2DS2 /// KIR2DS3 /// KIR2DS4 /// KIR3DL3 /// KIR3DL3 /// KIR3DS1 (11738374_at) / RFU C1QL1 (11718748_at) / Fold change /veh C1QL1 (11718748_at) / RFU TMPRSS4 (11747572_a_at) / Fold change /veh TMPRSS4 (11747572_a_at) / RFU HAMP (11756126_x_at) / Fold change /veh HAMP (11756126_x_at) / RFU RNFT2 (11725882_a_at) / Fold change /veh RNFT2 (11725882_a_at) / RFU NR4A2 (11747474_a_at) / Fold change /veh NR4A2 (11747474_a_at) / RFU ABCC12 (11746883_a_at) / Fold change /veh ABCC12 (11746883_a_at) / RFU TMEM136 (11760407_x_at) / Fold change /veh TMEM136 (11760407_x_at) / RFU CLDN22 /// WWC2 (11732394_at) / Fold change /veh CLDN22 /// WWC2 (11732394_at) / RFU HLA-DPB1 (11760878_x_at) / Fold change /veh HLA-DPB1 (11760878_x_at) / RFU SPINT1 (11716480_a_at) / Fold change /veh SPINT1 (11716480_a_at) / RFU GAP43 (11754022_s_at) / Fold change /veh GAP43 (11754022_s_at) / RFU A4GNT (11735810_at) / Fold change /veh A4GNT (11735810_at) / RFU PRB3 (11715151_x_at) / Fold change /veh PRB3 (11715151_x_at) / RFU TUBB4B (11761932_at) / Fold change /veh TUBB4B (11761932_at) / RFU CAPN14 (11732068_a_at) / Fold change /veh CAPN14 (11732068_a_at) / RFU TMCC2 (11721928_a_at) / Fold change /veh TMCC2 (11721928_a_at) / RFU IRGQ (11745062_a_at) / Fold change /veh IRGQ (11745062_a_at) / RFU FAM174B (11720279_a_at) / Fold change /veh FAM174B (11720279_a_at) / RFU TMPRSS4 (11748680_a_at) / Fold change /veh TMPRSS4 (11748680_a_at) / RFU FAM212B (11763350_a_at) / Fold change /veh FAM212B (11763350_a_at) / RFU PLEKHG5 (11743358_a_at) / Fold change /veh PLEKHG5 (11743358_a_at) / RFU ZSCAN30 (11745921_a_at) / Fold change /veh ZSCAN30 (11745921_a_at) / RFU CMKLR1 (11741424_a_at) / Fold change /veh CMKLR1 (11741424_a_at) / RFU LOC101060620 /// MAPK8IP1 (11723275_at) / Fold change /veh LOC101060620 /// MAPK8IP1 (11723275_at) / RFU SPTSSB (11747773_x_at) / Fold change /veh SPTSSB (11747773_x_at) / RFU PRSS12 (11739890_at) / Fold change /veh PRSS12 (11739890_at) / RFU BIN1 (11741810_x_at) / Fold change /veh BIN1 (11741810_x_at) / RFU WNT11 (11732464_a_at) / Fold change /veh WNT11 (11732464_a_at) / RFU C10orf10 (11716521_a_at) / Fold change /veh C10orf10 (11716521_a_at) / RFU C5orf56 (11738089_at) / Fold change /veh C5orf56 (11738089_at) / RFU CYB561 (11721691_x_at) / Fold change /veh CYB561 (11721691_x_at) / RFU ANKRD19P (11752326_a_at) / Fold change /veh ANKRD19P (11752326_a_at) / RFU OR2T12 /// OR2T33 /// OR2T8 (11738714_s_at) / Fold change /veh OR2T12 /// OR2T33 /// OR2T8 (11738714_s_at) / RFU VCAN (11748164_a_at) / Fold change /veh VCAN (11748164_a_at) / RFU JSRP1 (11732532_at) / Fold change /veh JSRP1 (11732532_at) / RFU KRTAP10-11 (11738290_x_at) / Fold change /veh KRTAP10-11 (11738290_x_at) / RFU MYO3A (11730013_a_at) / Fold change /veh MYO3A (11730013_a_at) / RFU EBF3 (11725865_a_at) / Fold change /veh EBF3 (11725865_a_at) / RFU CAMK2N1 (11719241_x_at) / Fold change /veh CAMK2N1 (11719241_x_at) / RFU C5orf56 (11738088_a_at) / Fold change /veh C5orf56 (11738088_a_at) / RFU OLFML3 (11715873_a_at) / Fold change /veh OLFML3 (11715873_a_at) / RFU LOC100653217 /// NTM (11731650_a_at) / Fold change /veh LOC100653217 /// NTM (11731650_a_at) / RFU MAPK11 (11762145_a_at) / Fold change /veh MAPK11 (11762145_a_at) / RFU FIZ1 (11724087_x_at) / Fold change /veh FIZ1 (11724087_x_at) / RFU OASL (11726364_x_at) / Fold change /veh OASL (11726364_x_at) / RFU SOX15 (11748057_x_at) / Fold change /veh SOX15 (11748057_x_at) / RFU CD79A (11719716_a_at) / Fold change /veh CD79A (11719716_a_at) / RFU HIST1H1D (11736915_at) / Fold change /veh HIST1H1D (11736915_at) / RFU CASKIN2 (11723855_a_at) / Fold change /veh CASKIN2 (11723855_a_at) / RFU LOC730098 (11760151_x_at) / Fold change /veh LOC730098 (11760151_x_at) / RFU OR4N2 (11742367_at) / Fold change /veh OR4N2 (11742367_at) / RFU PRRT2 (11749266_a_at) / Fold change /veh PRRT2 (11749266_a_at) / RFU SNX32 (11753110_a_at) / Fold change /veh SNX32 (11753110_a_at) / RFU CDHR5 (11726645_a_at) / Fold change /veh CDHR5 (11726645_a_at) / RFU RCAN1 (11760418_a_at) / Fold change /veh RCAN1 (11760418_a_at) / RFU FAM167A (11723789_a_at) / Fold change /veh FAM167A (11723789_a_at) / RFU FAM26E (11764081_at) / Fold change /veh FAM26E (11764081_at) / RFU ISYNA1 (11749810_s_at) / Fold change /veh ISYNA1 (11749810_s_at) / RFU ACY1 (11761880_at) / Fold change /veh ACY1 (11761880_at) / RFU 11764098_at / Fold change /veh 11764098_at / RFU SAMD14 (11745864_x_at) / Fold change /veh SAMD14 (11745864_x_at) / RFU NPB (11741838_a_at) / Fold change /veh NPB (11741838_a_at) / RFU TMPRSS6 (11731388_a_at) / Fold change /veh TMPRSS6 (11731388_a_at) / RFU KRTAP10-2 (11738614_at) / Fold change /veh KRTAP10-2 (11738614_at) / RFU ARHGAP8 /// PRR5-ARHGAP8 (11727945_x_at) / Fold change /veh ARHGAP8 /// PRR5-ARHGAP8 (11727945_x_at) / RFU KRTAP5-7 /// NADSYN1 (11734609_at) / Fold change /veh KRTAP5-7 /// NADSYN1 (11734609_at) / RFU RASL12 (11751679_a_at) / Fold change /veh RASL12 (11751679_a_at) / RFU CDKN2B (11736163_a_at) / Fold change /veh CDKN2B (11736163_a_at) / RFU PRF1 (11729649_at) / Fold change /veh PRF1 (11729649_at) / RFU, ZNF638 /// ZNF638-IT1 / Fold change vs veh, ZNF638 /// ZNF638-IT1 / RFU, PANK3 / Fold change vs veh, PANK3 / RFU, SH3YL1 / Fold change vs veh, SH3YL1 / RFU, ZEB2 / Fold change vs veh, ZEB2 / RFU, NRIP1 / Fold change vs veh, NRIP1 / RFU, PTTG1IP / Fold change vs veh, PTTG1IP / RFU, CAPN2 / Fold change vs veh, CAPN2 / RFU, MED14 / Fold change vs veh, MED14 / RFU, SNORA58 / Fold change vs veh, SNORA58 / RFU, C1orf63 / Fold change vs veh, C1orf63 / RFU, LRRFIP1 / Fold change vs veh, LRRFIP1 / RFU, NDUFAF7 / Fold change vs veh, NDUFAF7 / RFU, SLC12A2 / Fold change vs veh, SLC12A2 / RFU, IBTK / Fold change vs veh, IBTK / RFU, ESF1 / Fold change vs veh, ESF1 / Fold change vs veh, TMEM50B / RFU, TAOK1 / Fold change vs veh, TAOK1 / RFU, ACBD3 / Fold change vs veh, ACBD3 / RFU, TMA16 / Fold change vs veh, TMA16 / RFU, RWDD3 / Fold change vs veh, RWDD3 / RFU, BCAT1 / Fold change vs veh, BCAT1 / RFU, EDEM3 / Fold change vs veh, EDEM3 / RFU, TMEM33 / Fold change vs veh, TMEM33 / RFU, WDR75 / Fold change vs veh, WDR75 / RFU, AHCTF1 / Fold change vs veh, AHCTF1 / RFU, TFRC / Fold change vs veh, TFRC / RFU, ZDHHC17 / Fold change vs veh, ZDHHC17 / RFU, NOM1 / Fold change vs veh, NOM1 / RFU, ARL8B / Fold change vs veh, ARL8B / RFU, ZBTB11 / Fold change vs veh, ZBTB11 / RFU, TAMM41 / Fold change vs veh, TAMM41 / RFU, KIAA1704 /// LOC100996395 / Fold change vs veh, KIAA1704 /// LOC100996395 / RFU, ING1 / Fold change vs veh, ING1 / RFU, TRMT61B / Fold change vs veh, TRMT61B / RFU, FUBP3 / Fold change vs veh, FUBP3 / RFU, TP53 / Fold change vs veh, TP53 / RFU, TNKS2 / Fold change vs veh, TNKS2 / RFU, ZFP14 / Fold change vs veh, ZFP14 / RFU, ACTR2 / Fold change vs veh, ACTR2 / RFU, PPP3R1 / Fold change vs veh, PPP3R1 / RFU, PIK3R1 / Fold change vs veh, PIK3R1 / RFU, HNRNPA1 / Fold change vs veh, HNRNPA1 / RFU, RNF170 / Fold change vs veh, RNF170 / RFU, ZNF28 / Fold change vs veh, ZNF28 / RFU, RNGTT / Fold change vs veh, RNGTT / RFU, OGT / Fold change vs veh, OGT / RFU, BRD1 / Fold change vs veh, BRD1 / RFU, MARS / Fold change vs veh, MARS / RFU, ZNF655 / Fold change vs veh, ZNF655 / RFU, FAHD1 / Fold change vs veh, FAHD1 / RFU, BDP1 / Fold change vs veh, BDP1 / RFU, LRRCC1 / Fold change vs veh, LRRCC1 / RFU, ARID1A / Fold change vs veh, ARID1A / RFU, ZNF146 / Fold change vs veh, ZNF146 / RFU, ZNF330 / Fold change vs veh, ZNF330 / RFU, GPN3 / Fold change vs veh, GPN3 / RFU, C9orf123 / Fold change vs veh, C9orf123 / RFU, N4BP2L2 / Fold change vs veh, N4BP2L2 / RFU, ARFIP1 / Fold change vs veh, ARFIP1 / RFU, FAM179B / Fold change vs veh, FAM179B / RFU, BCL10 / Fold change vs veh, BCL10 / RFU, UHRF1BP1L / Fold change vs veh, UHRF1BP1L / RFU, BET1 / Fold change vs veh, BET1 / RFU, CNOT2 / Fold change vs veh, CNOT2 / RFU, ZNF268 / Fold change vs veh, ZNF268 / Fold change vs veh, ZNF507 / RFU, DGCR2 / Fold change vs veh, DGCR2 / RFU, WDSUB1 / Fold change vs veh, WDSUB1 / Fold change vs veh, HSP90B1 /// MIR3652 / RFU, ADSS / Fold change vs veh, ADSS / RFU, GK / Fold change vs veh, GK / RFU, ZNF148 / Fold change vs veh, ZNF148 / RFU, TAF9 / Fold change vs veh, TAF9 / RFU, SLC1A5 / Fold change vs veh, SLC1A5 / RFU, SLMO2 / Fold change vs veh, SLMO2 / RFU, ABCC4 / Fold change vs veh, ABCC4 / RFU, LOC101060439 /// RAP1B / Fold change vs veh, LOC101060439 /// RAP1B / RFU, RFX7 / Fold change vs veh, RFX7 / RFU, GTPBP10 / Fold change vs veh, GTPBP10 / RFU, CNEP1R1 / Fold change vs veh, CNEP1R1 / RFU, BIVM-ERCC5 /// ERCC5 / Fold change vs veh, BIVM-ERCC5 /// ERCC5 / RFU, ILF3 / Fold change vs veh, ILF3 / RFU 11762660_at / Fold change /veh 11762660_at / RFU VCAN (11757783_s_at) / Fold change /veh VCAN (11757783_s_at) / RFU DDX43 (11728927_at) / Fold change /veh DDX43 (11728927_at) / RFU KRT8 (11758188_x_at) / Fold change /veh KRT8 (11758188_x_at) / RFU NKD1 (11759106_at) / Fold change /veh NKD1 (11759106_at) / RFU SRD5A1 (11742802_a_at) / Fold change /veh SRD5A1 (11742802_a_at) / RFU TPSAB1 /// TPSB2 (11721975_s_at) / Fold change /veh TPSAB1 /// TPSB2 (11721975_s_at) / RFU GSTM3 (11746129_a_at) / Fold change /veh GSTM3 (11746129_a_at) / RFU IL23R (11737362_x_at) / Fold change /veh IL23R (11737362_x_at) / RFU TMEM51 (11727254_a_at) / Fold change /veh TMEM51 (11727254_a_at) / RFU PIWIL2 (11732686_x_at) / Fold change /veh PIWIL2 (11732686_x_at) / RFU ORM1 (11744905_x_at) / Fold change /veh ORM1 (11744905_x_at) / RFU CCDC152 (11743942_at) / Fold change /veh CCDC152 (11743942_at) / RFU ECM1 (11717891_a_at) / Fold change /veh ECM1 (11717891_a_at) / RFU IL23R (11748794_a_at) / Fold change /veh IL23R (11748794_a_at) / RFU TNFAIP8L3 (11732012_x_at) / Fold change /veh TNFAIP8L3 (11732012_x_at) / RFU MBOAT4 (11741988_at) / Fold change /veh MBOAT4 (11741988_at) / RFU 11764193_at / Fold change /veh 11764193_at / RFU TMEM53 (11763286_at) / Fold change /veh TMEM53 (11763286_at) / RFU MAGEB2 (11727129_at) / Fold change /veh MAGEB2 (11727129_at) / RFU TMEM200A (11744735_a_at) / Fold change /veh TMEM200A (11744735_a_at) / RFU CCDC152 (11751479_a_at) / Fold change /veh CCDC152 (11751479_a_at) / RFU FAM211A (11726209_a_at) / Fold change /veh FAM211A (11726209_a_at) / RFU RGS16 (11746705_a_at) / Fold change /veh RGS16 (11746705_a_at) / RFU VCAN (11755009_s_at) / Fold change /veh VCAN (11755009_s_at) / RFU RHOB (11743442_s_at) / Fold change /veh RHOB (11743442_s_at) / RFU RGS16 (11720943_a_at) / Fold change /veh RGS16 (11720943_a_at) / RFU RGS16 (11720944_at) / Fold change /veh RGS16 (11720944_at) / RFU, VPS4B / Fold change vs veh, VPS4B / RFU, CREB1 / Fold change vs veh, CREB1 / RFU, DNAJC13 / Fold change vs veh, DNAJC13 / RFU, GNAQ / Fold change vs veh, GNAQ / RFU, CDK5R1 / Fold change vs veh, CDK5R1 / RFU, ZRANB3 / Fold change vs veh, ZRANB3 / RFU, CUL4A / Fold change vs veh, CUL4A / RFU, CCNY / Fold change vs veh, CCNY / RFU, UFL1 / Fold change vs veh, UFL1 / RFU, COG3 / Fold change vs veh, COG3 / RFU, DIAPH2 / Fold change vs veh, DIAPH2 / RFU, SKA2 / Fold change vs veh, SKA2 / RFU, AFF3 / Fold change vs veh, AFF3 / RFU, LMF1 / Fold change vs veh, LMF1 / RFU, IPO11 / Fold change vs veh, IPO11 / RFU, DFFB / Fold change vs veh, DFFB / RFU, FOXP1 / Fold change vs veh, FOXP1 / RFU, CARD8 / Fold change vs veh, CARD8 / RFU, STRN3 / Fold change vs veh, STRN3 / RFU, ADK / Fold change vs veh, ADK / RFU, RASSF2 / Fold change vs veh, RASSF2 / RFU, WIPF1 / Fold change vs veh, WIPF1 / RFU, LARP1B / Fold change vs veh, LARP1B / RFU, RASA1 / Fold change vs veh, RASA1 / RFU, RB1 / Fold change vs veh, RB1 / RFU, PPFIA1 / Fold change vs veh, PPFIA1 / RFU, MAT2A / Fold change vs veh, MAT2A / RFU, CCT5 / Fold change vs veh, CCT5 / RFU, WDR92 / Fold change vs veh, WDR92 / RFU, CUX1 / Fold change vs veh, CUX1 / RFU, TTC7A / Fold change vs veh, TTC7A / RFU, TMEM135 / Fold change vs veh, TMEM135 / RFU, DEPTOR / Fold change vs veh, DEPTOR / RFU, CPM / Fold change vs veh, CPM / RFU, DNAJB6 / Fold change vs veh, DNAJB6 / RFU, CACNA2D3 / Fold change vs veh, CACNA2D3 / RFU, DTX4 / Fold change vs veh, DTX4 / RFU, TFCP2 / Fold change vs veh, TFCP2 / RFU, GMCL1 /// GMCL1P1 / Fold change vs veh, GMCL1 /// GMCL1P1 / RFU, AEBP2 / Fold change vs veh, AEBP2 / RFU, SNHG1 /// SNORD22 /// SNORD25 /// SNORD26 /// SNORD27 /// SNORD28 /// SNORD29 /// SNORD31 / Fold change vs veh, SNHG1 /// SNORD22 /// SNORD25 /// SNORD26 /// SNORD27 /// SNORD28 /// SNORD29 /// SNORD31 / Fold change (Aza/veh), C12orf56 (ProbeSet 11735607_a_at) / Fold change (ACY-1035/veh), C12orf56 (ProbeSet 11735607_a_at) / Fold change (Aza/veh), FGFR1OP (ProbeSet 11751329_s_at) / Fold change (ACY-1035/veh), FGFR1OP (ProbeSet 11751329_s_at) / Fold change (Aza/veh), VPS36 (ProbeSet 11739960_a_at) / Fold change (ACY-1035/veh), VPS36 (ProbeSet 11739960_a_at) / RFU SYPL1 (11715823_x_at) / Fold change /veh SYPL1 (11715823_x_at) / RFU IGFBP7 (11715501_s_at) / Fold change /veh IGFBP7 (11715501_s_at) / RFU REEP3 (11722064_at) / Fold change /veh REEP3 (11722064_at) / RFU IGLL1 (11728026_x_at) / Fold change /veh IGLL1 (11728026_x_at): dose or concentration left out as unconfirmed
Conditions: ProbeSet 11718569_a_at; LIST D

Nc1ccc(-c2cccs2)cc1NC(=O)c1ccc2c(c1)cc(C1CC1)n2CCN1CCOCC1 [ACY-1035]
Fold change vs veh, WIPF1: 0.95
